# Assay results taken from patent publication US11214803B2, “Modulators of YAP1 expression” (Ionis Pharmaceuticals, Inc., priority 2019, dated 2022).
# Strand notation (5' to 3'): a small letter for the sugar, then the base; units joined by * are phosphorothioate-linked, units joined directly phosphodiester-linked; [ ] holds rarer units or linkages, { } end groups; capitals alone tell only the bases. k = constrained ethyl (cEt); [5mC] = 5-methylcytosine; d = 2'-deoxy (DNA)
# Test system: Yap1 mRNA
# Test: Antisense inhibition of human Yap1 in A-431 cells by cEt gapmers, single dose (Example 3, RTS36584)
# Assay type: cell-based
# Settings: Table 8; A-431 cells, 5,000 cells per well, free uptake, 2,000 nM, approximately 48 hours; RTS36584; normalized to RIBOGREEN; Yap1 mRNA relative to untreated control cells
# Procedure, shortened: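 Human epidermoid A-431 cells take up gapmer (2,000 nM, free uptake, ~48 h); Yap1 transcript is then assayed by qRT-PCR with RiboGreen normalization and reported relative to untreated cells. Gapmers carry cEt-modified wings, phosphorothioate linkages and 5-methylcytosine throughout.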
row,Substance,YAP1 (% UTC)
1,958393 (antisense kG*k[5mC]*k[5mC]*dT*dA*dT*dG*dA*dG*dT*d[5mC]*dA*dA*k[5mC]*k[5mC]*kT) [Compound 958393],89 % UTC
2,958353 (antisense kT*k[5mC]*kG*dG*dT*d[5mC]*dT*d[5mC]*d[5mC]*dG*dA*dG*dT*k[5mC]*k[5mC]*k[5mC]) [Compound 958353],43 % UTC
3,958371 (antisense kA*k[5mC]*k[5mC]*dA*dA*d[5mC]*dT*dA*dT*dT*dA*d[5mC]*dT*kT*k[5mC]*kA) [Compound 958371],2 % UTC
4,958387 (antisense kG*kA*kG*dG*d[5mC]*dG*d[5mC]*dG*d[5mC]*dG*d[5mC]*dA*dT*kT*kG*kT) [Compound 958387],131 % UTC
5,958413 (antisense k[5mC]*kT*kA*dG*dT*dA*dA*dT*d[5mC]*dT*dT*dA*d[5mC]*kT*kG*kG) [Compound 958413],80 % UTC

# Same assay, conditions: Table 9; A-431 cells, 5,000 cells per well, free uptake, 2,000 nM, approximately 48 hours; RTS36584; normalized to RIBOGREEN; Yap1 mRNA relative to untreated control cells
row,Substance,YAP1 (% UTC)
1,958576 (kG*kT*kG*dG*d[5mC]*dT*dA*d[5mC]*dT*dG*dG*d[5mC]*dA*kA*kA*kT; antisense) [Compound 958576],53 % UTC
2,958596 (kA*kG*k[5mC]*dA*dG*dT*dT*dA*dA*dG*d[5mC]*dA*d[5mC]*kT*kT*kT; antisense) [Compound 958596],3 % UTC

# Same assay, conditions: Table 10; A-431 cells, 5,000 cells per well, free uptake, 2,000 nM oligonucleotide, approx. 48 hours; primer probe set RTS36584; Yap1 mRNA normalized to RIBOGREEN, percent of untreated control
row,Substance,YAP1 (% UTC)
1,958492 (kT*kG*kT*d[5mC]*dA*dG*dA*d[5mC]*d[5mC]*dA*dG*dT*dA*kA*kA*kT; antisense) [Compound 958492],12 % UTC
2,958737 (antisense kG*kG*kA*dA*dT*dA*d[5mC]*dA*dA*dG*d[5mC]*d[5mC]*d[5mC]*kG*kA*kG) [Compound 958737],8 % UTC
3,958662 (kG*kA*kA*d[5mC]*dA*dG*dA*dT*dA*dG*dG*dA*d[5mC]*kT*kA*k[5mC]; antisense) [Compound 958662],51 % UTC
4,958587 (kG*kG*kT*dG*dA*d[5mC]*dT*dG*dA*dA*dA*d[5mC]*dT*k[5mC]*kT*kA; antisense) [Compound 958587],2 % UTC

# Same assay, conditions: Table 11; A-431 cells, 5,000 cells per well, free uptake, 2,000 nM oligonucleotide, approx. 48 hours; primer probe set RTS36584; Yap1 mRNA normalized to RIBOGREEN, percent of untreated control
row,Substance,YAP1 (% UTC)
1,958473 (antisense kG*kT*k[5mC]*dT*d[5mC]*d[5mC]*dT*dT*dA*dG*dA*dT*d[5mC]*k[5mC]*kT*kT) [Compound 958473],5 % UTC
2,958623 (antisense kT*kT*kG*dA*dT*dA*dT*dT*d[5mC]*d[5mC]*dG*d[5mC]*dA*kT*kT*kG) [Compound 958623],3 % UTC
3,958618 (antisense kA*kG*k[5mC]*d[5mC]*dA*dA*dG*dA*dG*dG*dT*dG*dG*kT*k[5mC]*kT) [Compound 958618],36 % UTC
4,958578 (k[5mC]*kT*kT*dA*dA*dT*d[5mC]*dT*dG*dT*dG*dG*d[5mC]*kT*kA*k[5mC]; antisense) [Compound 958578],4 % UTC

# Same assay, conditions: Table 13; A-431 cells, 5,000 cells per well, free uptake, 2,000 nM modified oligonucleotide, approx. 48 hours; RTS36584; normalized to RIBOGREEN; Yap1 mRNA relative to untreated control cells
row,Substance,YAP1 (% UTC)
1,958630 (antisense kG*k[5mC]*kG*dG*dT*dA*dA*d[5mC]*dT*d[5mC]*dT*dT*d[5mC]*kT*kT*kT) [Compound 958630],52 % UTC
2,958560 (kG*kG*kT*dG*d[5mC]*d[5mC]*dA*d[5mC]*dT*dT*dT*dA*dA*kT*kT*k[5mC]; antisense) [Compound 958560],22 % UTC
3,958800 (antisense kT*k[5mC]*kG*dA*dT*dA*dA*dT*dA*dT*dA*dT*dG*kG*k[5mC]*kA) [Compound 958800],22 % UTC
4,958580 (kA*kT*kA*dA*dT*d[5mC]*dT*dT*dA*dA*dT*d[5mC]*dT*kG*kT*kG; antisense) [Compound 958580],4 % UTC
5,958695 (antisense kT*k[5mC]*kA*dA*dT*dT*d[5mC]*dT*d[5mC]*d[5mC]*dA*d[5mC]*d[5mC]*kA*kG*kA) [Compound 958695],45 % UTC

# Same assay, conditions: Table 26; Yap1 mRNA by 3-10-3 cEt gapmers targeting SEQ ID NO.: 1, and 2; percent of untreated control
row,Substance,YAP1 (% UTC)
1,1076364 (antisense k[5mC]*k[5mC]*kA*dT*dA*dA*dA*dA*dG*dT*d[5mC]*d[5mC]*dA*k[5mC]*kT*kA) [compound 1076364],30 % UTC
2,1075628 (antisense k[5mC]*k[5mC]*kG*d[5mC]*dA*dA*dA*dA*dT*dA*dT*dT*dA*kA*kT*kT) [compound 1075628],118 % UTC
3,1075884 (antisense kA*kT*kT*dA*dG*dT*dA*dA*dT*dG*dA*d[5mC]*dT*kA*kA*k[5mC]) [compound 1075884],116 % UTC
4,1076076 (kT*kA*kT*d[5mC]*dA*dA*dT*dA*d[5mC]*dT*dT*dT*dA*kG*kT*k[5mC]; antisense) [compound 1076076],57 % UTC
5,1074892 (k[5mC]*kT*kG*dA*dA*dG*dT*dT*dT*dA*dG*d[5mC]*d[5mC]*kT*kG*kA; antisense) [compound 1074892],42 % UTC
6,1075212 (k[5mC]*kA*kA*dT*dA*dA*dA*dG*dG*dG*dT*d[5mC]*d[5mC]*kT*kA*kA; antisense) [compound 1075212],76 % UTC
7,1074956 (antisense kA*k[5mC]*k[5mC]*d[5mC]*dG*dG*dG*dT*dT*dT*dT*dT*dG*kT*k[5mC]*kA) [compound 1074956],104 % UTC

# Same assay, conditions: Table 27; Yap1 mRNA by 3-10-3 cEt gapmers targeting SEQ ID NO.: 1, and 2; percent of untreated control
row,Substance,YAP1 (% UTC)
1,1075533 (kG*kA*kT*dT*dA*d[5mC]*dT*d[5mC]*dA*dG*d[5mC]*dT*dA*kT*kG*kT; antisense) [compound 1075533],65 % UTC
2,1074797 (kA*k[5mC]*kT*d[5mC]*d[5mC]*dA*dA*dA*dT*d[5mC]*dA*dA*dT*kG*kT*kG; antisense) [compound 1074797],31 % UTC
3,1075117 (k[5mC]*k[5mC]*kT*d[5mC]*dA*dA*dT*dA*dG*d[5mC]*dA*dA*dG*kA*k[5mC]*kA; antisense) [compound 1075117],48 % UTC
4,1074189 (antisense kG*kG*k[5mC]*dT*dG*d[5mC]*dG*dA*dA*dG*dG*d[5mC]*dG*kG*k[5mC]*kT) [compound 1074189],96 % UTC

# Same assay, conditions: Table 28; Yap1 mRNA as percent of untreated control; 3-10-3 cEt gapmers targeting SEQ ID NO.: 1, and 2
row,Substance,YAP1 (% UTC)
1,1074862 (kT*kA*kT*dG*dA*dG*d[5mC]*dA*dT*dG*d[5mC]*dT*d[5mC]*kT*kT*kA; antisense) [compound 1074862],56 % UTC

# Same assay, conditions: Table 29; Yap1 mRNA as percent of untreated control; 3-10-3 cEt gapmers targeting SEQ ID NO.: 1, and 2
row,Substance,YAP1 (% UTC)
1,1076463 (kG*kA*kT*dT*dA*dG*dT*dA*dA*d[5mC]*dA*d[5mC]*dT*kG*kA*kT; antisense) [compound 1076463],38 % UTC
2,1075695 (kG*kA*kA*dT*dA*dA*d[5mC]*dA*d[5mC]*d[5mC]*dA*d[5mC]*dA*kT*kT*kA; antisense) [compound 1075695],30 % UTC
3,1075503 (kG*k[5mC]*kT*dG*dA*dA*dA*dA*dA*dG*dG*dG*d[5mC]*kT*kT*kA; antisense) [compound 1075503],66 % UTC
4,1075215 (kA*kA*kA*d[5mC]*dA*dA*dT*dA*dA*dA*dG*dG*dG*kT*k[5mC]*k[5mC]; antisense) [compound 1075215],44 % UTC

# Same assay, conditions: Table 34; Yap1 mRNA as percent of untreated control; 3-10-3 cEt gapmers targeting SEQ ID NO: 1 and 2; single dose
row,Substance,YAP1 (% UTC)
1,1076564 (kT*kA*kA*dA*dG*dT*dA*dA*dT*dG*d[5mC]*dT*dA*k[5mC]*kA*kG; antisense) [compound 1076564],77 % UTC
2,1075828 (kT*kT*kA*dG*dA*dA*dT*dA*dG*dT*dT*d[5mC]*dT*kA*k[5mC]*k[5mC]; antisense) [compound 1075828],59 % UTC
3,1075508 (kG*kA*kA*dA*dA*dA*dG*dG*dT*dT*dT*dA*dG*kG*kG*kT; antisense) [compound 1075508],84 % UTC
4,1076468 (k[5mC]*kA*kT*dT*dA*d[5mC]*dT*dA*d[5mC]*dT*dA*dA*dG*kA*kG*kT; antisense) [compound 1076468],91 % UTC
5,1074836 (kA*kA*k[5mC]*dA*dA*d[5mC]*dA*dT*dG*d[5mC]*dT*dT*dG*k[5mC]*kG*kA; antisense) [compound 1074836],27 % UTC

# Same assay, conditions: Table 35; Yap1 mRNA as percent of untreated control; 3-10-3 cEt gapmers targeting SEQ ID NO: 1 and 2; single dose
row,Substance,YAP1 (% UTC)
1,1076213 (kT*k[5mC]*kT*d[5mC]*dA*dA*dG*dG*dA*dA*dT*dT*dG*k[5mC]*k[5mC]*kT; antisense) [compound 1076213],27 % UTC
2,1074517 (kA*kA*kT*dG*d[5mC]*dA*dT*dA*d[5mC]*dA*dA*dA*dG*k[5mC]*kG*k[5mC]; antisense) [compound 1074517],55 % UTC
3,1076405 (antisense kT*kT*kA*dT*dT*dT*dA*dA*dG*dA*d[5mC]*d[5mC]*dT*kG*kG*kT) [compound 1076405],12 % UTC
4,1076245 (k[5mC]*k[5mC]*kT*dA*dA*dA*dA*dA*dA*d[5mC]*dT*dA*dG*kT*kG*kA; antisense) [compound 1076245],101 % UTC
5,1075957 (k[5mC]*kT*kA*dT*dA*dA*dA*dG*d[5mC]*dA*dA*dT*dG*k[5mC]*kG*kA; antisense) [compound 1075957],28 % UTC
6,1075189 (kG*k[5mC]*kT*dA*dA*dT*dA*dG*dT*d[5mC]*dA*d[5mC]*dT*kG*kT*kT; antisense) [compound 1075189],11 % UTC
